How the values were obtained:
[1] = system: Glomerella lagenarium (Colletotrichum lagenarium); assay: Glomerella lagenarium (Colletotrichum lagenarium) liquid culture / cucumber / preventative (anthracnose); assay type: cell-based; settings: Colletotrichum orbiculare; 20 ppm in the applied formulation; conidia in PDB nutrient broth, 24° C.; 3 to 4 days after application; compared to untreated; read-out: disease control (inhibition of growth measured photometrically)
Method: Mycelia fragments or conidia suspensions of a fungus prepared either freshly from liquid cultures of the fungus or from cryogenic storage, are directly mixed into nutrient broth. DMSO solutions of the test compound (max. 10 mg/ml) are diluted with 0.025% Tween20 by a factor of 50 and 10 µl of this solution is pipetted into a microtiter plate (96-well format). The nutrient broth containing the fungal spores/mycelia fragments is then added to give an end concentration of the tested compound. The test plates are incubated in the dark at 24° C. and 96% relative humidity. The inhibition of fungal growth is determined photometrically after 2 to 7 days, depending on the pathosystem, and percent antifungal activity relative to the untreated check is calculated. Conidia of the fungus from cryogenic storage are directly mixed into nutrient broth (PDB—potato dextrose broth). After placing a (DMSO) solution of test compound into a microtiter plate (96-well format), the nutrient broth containing the fungal spores is added. The test plates are incubated at 24° C. and the inhibition of growth is measured photometrically 3 to 4 days after application. The following compounds at 20 ppm in the applied formulation give at least 80% disease control in this test when compared to untreated control under the same conditions, which show extensive disease development.

[2] = system: Puccinia recondita f. sp. Tritici; assay: Puccinia recondita f. sp. tritici / wheat / leaf disc preventative (brown rust); assay type: in vivo; settings: foliar, 200 ppm in the applied formulation, wheat leaf segments cv. Kanzler, inoculated 1 day after application, compared to untreated, assessed 7 to 9 days after application, read-out: disease control
Method: Leaf disks or leaf segments of various plant species are cut from plants grown in a greenhouse. The cut leaf disks or segments are placed in multiwell plates (24-well format) onto water agar. The leaf disks are sprayed with a test solution before (preventative) or after (curative) inoculation. Compounds to be tested are prepared as DMSO solutions (max. 10 mg/ml) which are diluted to the appropriate concentration with 0.025% Tween20 just before spraying. The inoculated leaf disks or segments are incubated under defined conditions (temperature, relative humidity, light, etc.) according to the respective test system. A single evaluation of disease level is carried out 3 to 14 days after inoculation, depending on the pathosystem. Percent disease control relative to the untreated check leaf disks or segments is then calculated. Wheat leaf segments cv. Kanzler were placed on agar in multiwell plates (24-well format) and sprayed with the formulated test compound diluted in water. The leaf disks were inoculated with a spore suspension of the fungus 1 day after application. The inoculated leaf segments were incubated at 19° C. and 75% relative humidity (rh) under a light regime of 12 hours light/12 hours darkness in a climate cabinet and the activity of a compound was assessed as percent disease control compared to untreated when an appropriate level of disease damage appears in untreated check leaf segments (7 to 9 days after application). The following compounds at 200 ppm in the applied formulation give at least 80% disease control in this test when compared to untreated control leaf disks under the same conditions, which show extensive disease development.

| SMILES | inhibition at 20 ppm [1] | pest or weed control at 200 ppm [2] |
| --- | --- | --- |
| CCCN(Cc1ccc(-c2noc(C(F)(F)F)n2)cc1)S(=O)(=O)Cc1ccccc1 [Compound 1.77, 1-phenyl-N-propyl-N-[[4-[5-(trifluoromethyl)-1,2,4-oxadiazol-3-yl]phenyl]methyl] methanesulfonamide] | ≥ 80% | – |
| CCCN(Cc1ccc(-c2noc(C(F)(F)F)n2)cc1)S(=O)(=O)CC [Compound 1.78, N-propyl-N-[[4-[5-(trifluoromethyl)-1,2,4-oxadiazol-3-yl]phenyl]methyl] ethanesulfonamide] | ≥ 80% | – |
| O=S(=O)(Cc1ccccc1)N(Cc1ccc(-c2noc(C(F)(F)F)n2)cc1)C1CC1 [Compound 1.4, N-cyclopropyl-1-phenyl-N-[[4-[5-(trifluoromethyl)-1,2,4-oxadiazol-3-yl]phenyl]methyl] methanesulfonamide] | ≥ 80% | – |
| C/C=C/S(=O)(=O)NCc1ccc(-c2noc(C(F)(F)F)n2)cc1 [Compound 2.10, (E)-N-[[4-[5-(trifluoromethyl)-1,2,4-oxadiazol-3-yl]phenyl]methyl] prop-1-ene-1-sulfonamide] | ≥ 80% | ≥ 80% |
| CCCN(Cc1ccc(-c2noc(C(F)(F)F)n2)cc1)S(=O)(=O)NC [Compound 1.80, 3-[4-[[methylsulfamoyl (propyl)amino]methyl]phenyl]-5-(trifluoromethyl)-1,2,4-oxadiazole] | ≥ 80% | ≥ 80% |
| CCCCS(=O)(=O)N(C)Cc1ccc(-c2noc(C(F)(F)F)n2)cc1 [Compound 1.55, N-methyl-N-[[4-[5-(trifluoromethyl)-1,2,4-oxadiazol-3-yl]phenyl]methyl] butane-1-sulfonamide] | ≥ 80% | – |
| CON(Cc1ccc(-c2noc(C(F)(F)F)n2)cc1)S(=O)(=O)c1ccn(C)n1 [Compound 1.88, N-methoxy-1-methyl-N-[[4-[5-(trifluoromethyl)-1,2,4-oxadiazol-3-yl]phenyl]methyl] pyrazole-3-sulfonamide] | – | ≥ 80% |
| C/C=C/S(=O)(=O)N(Cc1ccc(-c2noc(C(F)(F)F)n2)cc1)OC [Compound 1.94, (E)-N-methoxy-N-[[4-[5-(trifluoromethyl)-1,2,4-oxadiazol-3-yl]phenyl]methyl] prop-1-ene-1-sulfonamide] | ≥ 80% | – |
| CC(C)S(=O)(=O)N(C)Cc1ccc(-c2noc(C(F)(F)F)n2)cc1 [Compound 1.54, N-methyl-N-[[4-[5-(trifluoromethyl)-1,2,4-oxadiazol-3-yl]phenyl]methyl] propane-2-sulfonamide] | ≥ 80% | ≥ 80% |
| CCN(Cc1ccc(-c2noc(C(F)(F)F)n2)cc1)S(=O)(=O)Cc1ccccc1 [Compound 1.60, N-ethyl-1-phenyl-N-[[4-[5-(trifluoromethyl)-1,2,4-oxadiazol-3-yl]phenyl]methyl] methanesulfonamide] | ≥ 80% | ≥ 80% |
| CC(C)N(Cc1ccc(-c2noc(C(F)(F)F)n2)cc1)S(=O)(=O)N1CCCC1 [Compound 1.97, N-isopropyl-N-[[4-[5-(trifluoromethyl)-1,2,4-oxadiazol-3-yl]phenyl]methyl] pyrrolidine-1-sulfonamide] | ≥ 80% | ≥ 80% |
| COC(=O)CS(=O)(=O)NCc1ccc(-c2noc(C(F)(F)F)n2)c(F)c1 [Compound 2.20, methyl 2-[[3-fluoro-4-[5-(trifluoromethyl)-1,2,4-oxadiazol-3-yl]phenyl]methyl-sulfamoyl] acetate] | ≥ 80% | – |
| O=S(=O)(Cc1ccccc1)NCc1ccc(-c2noc(C(F)(F)F)n2)c(F)c1 [Compound 3.22, N-[[3-fluoro-4-[5-(trifluoromethyl)-1,2,4-oxadiazol-3-yl]phenyl]methyl]-1-phenyl-methanesulfonamide] | – | ≥ 80% |
| CNS(=O)(=O)N(Cc1ccc(-c2noc(C(F)(F)F)n2)cc1)OC [Compound 1.58, 3-[4-[[methoxy(methylsulfamoyl)amino]methyl]phenyl]-5-(trifluoromethyl)-1,2,4-oxadiazole] | ≥ 80% | – |
| CCCCS(=O)(=O)NCc1ccc(-c2noc(C(F)(F)F)n2)cc1F [Compound 2.23, N-[[2-fluoro-4-[5-(trifluoromethyl)-1,2,4-oxadiazol-3-yl]phenyl]methyl] butane-1-sulfonamide] | ≥ 80% | – |
| CCN(Cc1ccc(-c2noc(C(F)(F)F)n2)cc1)S(=O)(=O)CC1CC1(Cl)Cl (stereo not shown) [Compound 1.31, 1-(2,2-dichlorocyclopropyl)-N-ethyl-N-[[4-[5-(trifluoromethyl)-1,2,4-oxadiazol-3-yl]phenyl]methyl] methanesulfonamide] | ≥ 80% | – |
| CCCN(Cc1ccc(-c2noc(C(F)(F)F)n2)cc1)S(=O)(=O)CCC [Compound 1.26, N-propyl-N-[[4-[5-(trifluoromethyl)-1,2,4-oxadiazol-3-yl]phenyl]methyl] propane-1-sulfonamide] | ≥ 80% | – |
| CC(C)N(Cc1ccc(-c2noc(C(F)(F)F)n2)cc1)S(=O)(=O)Cc1ccccc1 [Compound 1.99, N-isopropyl-1-phenyl-N-[[4-[5-(trifluoromethyl)-1,2,4-oxadiazol-3-yl]phenyl]methyl) methanesulfonamide] | ≥ 80% | – |
| Cc1ccc(S(=O)(=O)NCc2ccc(-c3noc(C(F)(F)F)n3)cc2F)s1 [Compound 3.25, N-[[2-fluoro-4-[5-(trifluoromethyl)-1,2,4-oxadiazol-3-yl]phenyl]methyl]-5-methyl-thiophene-2-sulfonamide] | ≥ 80% | – |
| Cc1ccc(S(=O)(=O)NCc2ccc(-c3noc(C(F)(F)F)n3)c(F)c2)s1 [Compound 3.15, N-[[3-fluoro-4-[5-(trifluoromethyl)-1,2,4-oxadiazol-3-yl]phenyl]methyl]-5-methyl-thiophene-2-sulfonamide] | ≥ 80% | – |
| O=S(=O)(NCc1ccc(-c2noc(C(F)(F)F)n2)cc1F)c1ccccc1 [Compound 3.32, N-[[2-fluoro-4-[5-(trifluoromethyl)-1,2,4-oxadiazol-3-yl]phenyl]methyl] benzenesulfonamide] | – | ≥ 80% |
| COC(=O)CS(=O)(=O)N(Cc1ccc(-c2noc(C(F)(F)F)n2)cc1)OC [Compound 1.57, methyl 2-[methoxy-[[4-[5-(trifluoromethyl)-1,2,4-oxadiazol-3-yl]phenyl]methyl]sulfamoyl]acetate] | – | ≥ 80% |
| CCCN(Cc1ccc(-c2noc(C(F)(F)F)n2)cc1)S(=O)(=O)CCC(=O)OC [Compound 1.72, methyl 3-[propyl-[[4-[5-(trifluoromethyl)-1,2,4-oxadiazol-3-yl]phenyl]methyl]sulfamoyl]propanoate] | ≥ 80% | – |
| C/C=C/S(=O)(=O)N(CCC)Cc1ccc(-c2noc(C(F)(F)F)n2)cc1 [Compound 1.75, (E)-N-propyl-N-[[4-[5-(trifluoromethyl)-1,2,4-oxadiazol-3-yl]phenyl]methyl] prop-1-ene-1-sulfonamide] | ≥ 80% | – |
| COCCS(=O)(=O)N(Cc1ccc(-c2noc(C(F)(F)F)n2)cc1)OC [Compound 1.40, N,2-dimethoxy-N-[[4-[5-(trifluoromethyl)-1,2,4-oxadiazol-3-yl]phenyl]methyl] ethanesulfonamide] | ≥ 80% | – |
| C=CCS(=O)(=O)N(Cc1ccc(-c2noc(C(F)(F)F)n2)cc1)OC [Compound 1.92, N-methoxy-N-[[4-[5-(trifluoromethyl)-1,2,4-oxadiazol-3-yl]phenyl]methyl] prop-2-ene-1-sulfonamide] | ≥ 80% | – |
| COC(=O)CS(=O)(=O)NCc1ccc(-c2noc(C(F)(F)F)n2)cc1 [Compound 2.11, methyl 2-[[4-[5-(trifluoromethyl)-1,2,4-oxadiazol-3-yl]phenyl]methyl-sulfamoyl] acetate] | ≥ 80% | – |
| CCN(Cc1ccc(-c2noc(C(F)(F)F)n2)cc1)S(=O)(=O)c1ccccc1 [Compound 1.24, N-ethyl-N-[[4-[5-(trifluoromethyl)-1,2,4-oxadiazol-3-yl]phenyl]methyl] benzenesulfonamide] | ≥ 80% | – |
| O=S(=O)(Cc1ccccc1)NCc1ccc(-c2noc(C(F)(F)F)n2)cc1F [Compound 3.23, N-[[2-fluoro-4-[5-(trifluoromethyl)-1,2,4-oxadiazol-3-yl]phenyl]methyl]-1-phenyl-methanesulfonamide] | – | ≥ 80% |
